From US10377743B2, “Inhibitors of RAS and methods of use thereof” (Araxes Pharma LLC, priority 2016, dated 2019) come the findings set out here.

The structures appear in SMILES notation.

The target of the first experiment is T1, KRAS G12C 1-169, his-tagged protein, GDP-loaded (Homo sapiens, UniProt P01116, G12C).
T1 construct: KRAS G12C 1-169, his-tagged protein, GDP-loaded
Kind of experiment: Biochemical assay: covalent binding (modification %) to KRAS G12C by mass spectrometry. As to conditions: 2 hour incubation period, 8 μM compound (compounds 21-92). The method, then:
Test compounds were prepared as 10 mM stock solutions in DMSO (Fisher cat# BP-231-100). KRAS G12C 1-169, his-tagged protein, GDP-loaded was diluted to 2 μM or 0.5 μM in buffer (20 mM Hepes, 150 mM NaCl, 1 mM MgCl2). Compounds were tested for activity as follows:
Compounds were diluted to 50× final test concentration in DMSO in 96-well storage plates. Compound stock solutions were vortexed before use and observed carefully for any sign of precipitation. Dilutions were as follow: • For 100 μM final compound concentration, compounds were diluted to 5000 μM (5 μL 10 mM compound stock+5 μL DMSO and mixed well by pipetting. • For 30 μM final compound concentration, compounds were diluted to 1500 μM (3 μL 10 mM compound stock+17 μL DMSO) and mixed well by pipetting. • For 10 μM final compound concentration, compounds were diluted to 500 μM (2 μL 10 mM compound stock+38 μL DMSO) and mixed well by pipetting. 49 μL of the stock protein solution was added to each well of a 96-well PCR plate (Fisher cat#1423027). 1 μl of the diluted 50× compounds were added to appropriate wells in the PCR plate using 12-channel pipettor. Reactions were mixed carefully and thoroughly by pipetting up/down with a 200 μL multi-channel pipettor. The plate was sealed well with aluminum plate seal, and stored in drawer at room temperature for 10 minutes, 30 minutes, 2 hours or 24 hours. 5 μL of 2% formic acid (Fisher cat# A117) in de-ionized H2O was then added to each well followed by mixing with a pipette. The plate was then resealed with aluminum seal and stored on dry ice until analyzed as described below.
The above described assays were analyzed by mass spectrometry according to one of the following two procedures:
The MS instrument is set to positive polarity, 2 GHz resolution, and low mass (1700) mode and allowed to equilibrate for 30 minutes. The instrument is then calibrated, switched to acquisition mode and the appropriate method loaded.
After another 30 minute equilibration time, a blank batch (i.e., buffer) is run to ensure equipment is operating properly. The samples are thawed at 37° C. for 10 minutes, briefly centrifuged, and transfer to the bench top. Wells A1 and H12 are spiked with 1 μL 500 μM internal standard peptide, and the plates centrifuged at 2000×g for 5 minutes. The method is then run and masses of each individual well recorded.
The masses (for which integration data is desired) for each well are pasted into the platemap and exported from the analysis. Masses for the internal standards are exported as well. The data at 50 ppm is extracted for the +19 charge state, and identity of well A1 is assigned using the internal standard spike and integrated. Peak data is exported as a TOF list and the above steps are repeated individually, for the +20, 21, 22, 23, 24, and 25 charge states.
The masses and peak intensities of KRAS G12C protein species were measured using a Dionex RSLCnano system (Thermo Scientific) connected to a Q Exactive Plus mass spectrometer (Thermo Scientific).
[…] of sample was each loaded onto a Aeris™ 3.6 μm WIDEPORE C4 200 Å, LC Column 50×2.1 mm column maintained at 40° C. at a flow rate of 600 μL/min with 20% Solvent A (0.1% formic acid in H2O) and 80% Solvent B (0.1% formic acid in acetonitrile). The liquid chromatography conditions were 20% solvent B for 1 minute, 20% to 60% solvent B for 1.5 minutes, 60% to 90% solvent for 0.5 minute, 90% solvent B for 0.2 minute, 90% to 20% solvent B for 0.2 minute, and then equilibrated for 1.6 minute before the following sample injection. The flow rate was maintained at 600 μL/min throughout the sample analysis.
The mass spectrometer was operated in profile mode at a resolution of 17500, 5 microscans, using 50 msec max injection time and an AGC target of 1×10^6, and a full mass range from 800-1850 m/z was recorded. The HCD trapping gas was optimized for maximum sensitivity for intact proteins. […]
As to `C=CC(=O)N1CC(N2Cc3cc(F)c(-c4cc(O)ccc4Cl)cc3C2=O)C1` [Compound 21, 2-(1-acryloylazetidin-3-yl)-6-(2-chloro-5-hydroxyphenyl)-5-fluoroisoindolin-1-one], the Binding % result is “++ (++ indicates binding activity from 10 to 50%)”. The same measure, in the same setting: the entry for `C=CC(=O)NCCN1Cc2ccc(-c3c(C)ccc4[nH]ncc34)cc2C1=O` [Compound 22, N-(2-(6-(5-methyl-1H-indazol-4-yl)-1-oxoisoindolin-2-yl)ethyl)acrylamide] is “+ (+ indicates binding activity up to 10%)”; for `C=CC(=O)N1CC(N2Cc3c(C(N)=O)cc(-c4cc(O)cc5ccccc45)cc3C2=O)C1` [Compound 23, 2-(1-acryloylazetidin-3-yl)-6-(3-hydroxynaphthalen-1-yl)-1-oxoisoindoline-4-carboxamide] it is “+++ (+++ indicates binding activity greater than 50%)”.

As for `C=CC(=O)N1CC(N2Cc3c(C#N)cc(-c4cc(O)cc5ccccc45)cc3C2=O)C1` [Compound 24, 2-(1-acryloylazetidin-3-yl)-6-(3-hydroxynaphthalen-1-yl)-1-oxoisoindoline-4-carbonitrile], the Binding % result was “+++ (+++ indicates binding activity greater than 50%)”.

In the case of `C=CC(=O)N1CC(N2C(=O)c3ccc(-c4cc(O)cc5ccccc45)cc3C2=O)C1` [Compound 25, 2-(1-acryloylazetidin-3-yl)-5-(3-hydroxynaphthalen-1-yl)isoindoline-1,3-dione], the Binding % result is on record as “++ (++ indicates binding activity from 10 to 50%)”.

The same experiment, now with this note: 2 hour incubation period, 10 μM compound (compounds 1-20).
Take `C=CC(=O)N1CC(N2Cc3cc(-c4cc(O)cc5ccccc45)ccc3C2=O)C1` [Compound 1, 2-(1-acryloylazetidin-3-yl)-5-(3-hydroxynaphthalen-1-yl)isoindolin-1-one]: the Binding % entry was “++ (++ indicates binding activity from 10 to 50%)”. On to `C=CC(=O)N1CC(N2Cc3ccc(-c4cc(O)cc5ccccc45)cc3C2=O)C1` [Compound 2, 2-(1-acryloylazetidin-3-yl)-6-(3-hydroxynaphthalen-1-yl)isoindolin-1-one], for which the Binding % entry is on record as “+++ (+++ indicates binding activity greater than 50%)”. Still for that read-out and setting: the entry for `C=CC(=O)N1CC(N2Cc3ccc(-c4cc(O)cc5ccccc45)cc3CC2=O)C1` [Compound 3, 2-(1-acryloylazetidin-3-yl)-6-(3-hydroxynaphthalen-1-yl)-1,4-dihydroisoquinolin-3(2H)-one] is “+++ (+++ indicates binding activity greater than 50%)”; for `C=CC(=O)N1CCCC(N2Cc3ccc(-c4cc(O)cc5ccccc45)cc3C2=O)C1` (stereo not shown) [Compound 4, 2-(1-acryloylpiperidin-3-yl)-6-(3-hydroxynaphthalen-1-yl)isoindolin-1-one] it is “+ (+ indicates binding activity up to 10%)”; for `C=CC(=O)N1CC(N2Cc3ccc(-c4c(C)ccc5[nH]ncc45)cc3C2=O)C1` [Compound 5, 2-(1-acryloylazetidin-3-yl)-6-(5-methyl-1H-indazol-4-yl)isoindolin-1-one] it is “++ (++ indicates binding activity from 10 to 50%)”. For the compound `C=CC(=O)N1CC(N2Cc3ccc(-c4c(O)cccc4F)cc3C2=O)C1` [Compound 6, 2-(1-acryloylazetidin-3-yl)-6-(2-fluoro-6-hydroxyphenyl)isoindolin-1-one], the Binding % entry is recorded as “+ (+ indicates binding activity up to 10%)”. Same read-out and setting: the result for `C=CC(=O)N1CCC(N2Cc3ccc(-c4cc(O)cc5ccccc45)cc3C2=O)CC1` [Compound 7, 2-(1-acryloylpiperidin-4-yl)-6-(3-hydroxynaphthalen-1-yl)isoindolin-1-one] reads “+ (+ indicates binding activity up to 10%)”; that for `C=CC(=O)N1CC(N2Cc3ccc(-c4c(C)ccc5cn[nH]c45)cc3C2=O)C1` [Compound 8, 2-(1-acryloylazetidin-3-yl)-6-(6-methyl-1H-indazol-7-yl)isoindolin-1-one], “+ (+ indicates binding activity up to 10%)”.

As for `C=CC(=O)N1CCC(N2Cc3ccc(-c4cc(O)cc5ccccc45)cc3C2=O)C1` (stereo not shown) [Compound 9, 2-(1-acryloylpyrrolidin-3-yl)-6-(3-hydroxynaphthalen-1-yl)isoindolin-1-one], the Binding % entry is recorded as “++ (++ indicates binding activity from 10 to 50%)”. Same read-out and setting: the result for `C=CC(=O)N1CC(N2Cc3ccc(-c4cc(O)ccc4Cl)cc3C2=O)C1` [Compound 10, 2-(1-acryloylazetidin-3-yl)-6-(2-chloro-5-hydroxyphenyl)isoindolin-1-one] reads “+++ (+++ indicates binding activity greater than 50%)”; that for `C=CC(=O)N1CC(N2Cc3ccc(-c4cc(O)ccc4C)cc3C2=O)C1` [Compound 11, 2-(1-acryloylazetidin-3-yl)-6-(5-hydroxy-2-methylphenyl)isoindolin-1-one], “++ (++ indicates binding activity from 10 to 50%)”; that for `C=CC(=O)N1CC(N2Cc3c(Cl)cc(-c4cc(O)cc5ccccc45)cc3C2=O)C1` [Compound 12, 2-(1-acryloylazetidin-3-yl)-4-chloro-6-(3-hydroxynaphthalen-1-yl)isoindolin-1-one], “+++ (+++ indicates binding activity greater than 50%)”.

`C=CC(=O)N1CC(N2Cc3c(Cl)cc(-c4cc(O)ccc4Cl)cc3C2=O)C1` [Compound 13, 2-(1-acryloylazetidin-3-yl)-4-chloro-6-(2-chloro-5-hydroxyphenyl)isoindolin-1-one]: the Binding % result is “++ (++ indicates binding activity from 10 to 50%)”. The same measure, in the same setting: the result for `C=CC(=O)N1CC(N2Cc3c(C)cc(-c4cc(O)cc5ccccc45)cc3C2=O)C1` [Compound 14, 2-(1-acryloylazetidin-3-yl)-6-(3-hydroxynaphthalen-1-yl)-4-methylisoindolin-1-one] reads “+++ (+++ indicates binding activity greater than 50%)”. Regarding `C=CC(=O)N1CC(N2Cc3c(C)cc(-c4cc(O)ccc4Cl)cc3C2=O)C1` [Compound 15, 2-(1-acryloylazetidin-3-yl)-6-(2-chloro-5-hydroxyphenyl)-4-methylisoindolin-1-one], the Binding % result was “++ (++ indicates binding activity from 10 to 50%)”. For `C=CC(=O)N1CC(N2Cc3ccc(-c4c[nH]c5ccccc45)cc3C2=O)C1` [Compound 16, 2-(1-acryloylazetidin-3-yl)-6-(1H-indol-3-yl)isoindolin-1-one], the Binding % result is on record as “++ (++ indicates binding activity from 10 to 50%)”. On the same count and under the same terms, the entry for `C=CC(=O)N1CC(N2Cc3c(cc(-c4cc(O)ccc4Cl)cc3C(F)(F)F)C2=O)C1` [Compound 17, 2-(1-acryloylazetidin-3-yl)-6-(2-chloro-5-hydroxyphenyl)-4-(trifluoromethyl)isoindolin-1-one] is “++ (++ indicates binding activity from 10 to 50%)”; for `C=CC(=O)NCCN1Cc2ccc(-c3cc(O)cc4ccccc34)cc2C1=O` [Compound 18, N-(2-(6-(3-hydroxynaphthalen-1-yl)-1-oxoisoindolin-2-yl)ethyl)acrylamide] it is “+ (+ indicates binding activity up to 10%)”. In the case of `C=CC(=O)N1CC(N2Cc3cc(F)c(-c4cc(O)cc5ccccc45)cc3C2=O)C1` [Compound 19, 2-(1-acryloylazetidin-3-yl)-5-fluoro-6-(3-hydroxynaphthalen-1-yl)isoindolin-1-one], the Binding % result was “+++ (+++ indicates binding activity greater than 50%)”.

Take `C=CC(=O)N1CC(N2Cc3ccc(Nc4ccccc4)cc3C2=O)C1` [Compound 20, 2-(1-acryloylazetidin-3-yl)-6-(phenylamino)isoindolin-1-one]: the Binding % result was “+ (+ indicates binding activity up to 10%)”.
